Structures are written as SMILES. Numbered stars: 1 amine (or outer) side, 2 acyl side, 3 side chain; on linkers, the order of the positions; unused ones are H or OH. Bridge positions count the residues as written; N and C are the ends. Square brackets hold non-standard residues; d marks the D form. Peptide text beside a SMILES is read from it. * marks the point of attachment. Pro(5R-Ph) = O=C(O)[C@@H]1CC[C@H](c2ccccc2)N1; N(CH2CH2COOH)Gly = O=C(O)CCNCC(=O)O; X2 = O=C(C1(N[*:1])CCC(O)CC1)[*:2]; dPen = CC(C)(S)[C@@H](N)C(=O)O; dTle = CC(C)(C)[C@@H](N)C(=O)O; Carboxymethyl = O=C(O)C*; βAla = NCCC(=O)O; Sar = CNCC(=O)O

As a reminder, the IC50 is the point on the concentration scale where inhibition reaches its midpoint. Low values mean higher potency, high ones lower potency.

One assay deals with αvβ3 integrin (Homo sapiens, UniProt P05106+P06756). The experiment in a line: Inhibition of biotinylated LXW7 binding to αvβ3-K562 cells (flow cytometry). As to conditions: LXW9-92: inhibiting the binding of biotinylated LXW7 against αvβ3-K562 cells, LXW7 as internal reference. Details: expressed in transfected cells; host or cells: K562 (gift of Dr. Yoshikazu Takada, UC Davis). As to the method: The apparent IC50 were calculated using Graph Prism software (≦www.graphpad.com≧).
Chain of αvβ3 integrin (P06756 31-889 limits assumed): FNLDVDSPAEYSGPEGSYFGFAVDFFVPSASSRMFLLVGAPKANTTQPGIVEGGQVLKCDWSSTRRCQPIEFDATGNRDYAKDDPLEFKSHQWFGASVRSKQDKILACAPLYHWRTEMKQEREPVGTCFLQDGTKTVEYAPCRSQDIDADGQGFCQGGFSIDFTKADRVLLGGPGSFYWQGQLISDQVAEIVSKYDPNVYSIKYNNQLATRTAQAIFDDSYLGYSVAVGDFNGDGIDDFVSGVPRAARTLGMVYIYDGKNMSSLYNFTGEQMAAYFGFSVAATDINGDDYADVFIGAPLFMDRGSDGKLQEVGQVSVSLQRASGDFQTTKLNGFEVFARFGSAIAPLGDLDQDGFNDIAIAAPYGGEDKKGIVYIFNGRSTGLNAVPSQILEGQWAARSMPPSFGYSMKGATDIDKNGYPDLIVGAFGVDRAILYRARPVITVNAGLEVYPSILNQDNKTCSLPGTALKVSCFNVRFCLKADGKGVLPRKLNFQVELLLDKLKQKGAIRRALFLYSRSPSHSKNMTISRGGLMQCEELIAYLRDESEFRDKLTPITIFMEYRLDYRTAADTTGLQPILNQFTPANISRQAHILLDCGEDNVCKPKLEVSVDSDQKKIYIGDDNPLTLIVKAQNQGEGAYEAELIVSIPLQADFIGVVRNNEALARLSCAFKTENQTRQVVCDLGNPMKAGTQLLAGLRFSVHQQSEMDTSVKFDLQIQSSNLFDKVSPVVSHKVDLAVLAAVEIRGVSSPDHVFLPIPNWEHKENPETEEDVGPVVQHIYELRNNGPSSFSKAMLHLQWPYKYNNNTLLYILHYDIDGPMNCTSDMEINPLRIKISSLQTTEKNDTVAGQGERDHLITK
Chain of αvβ3 integrin (P06756 891-1048 partner limits assumed): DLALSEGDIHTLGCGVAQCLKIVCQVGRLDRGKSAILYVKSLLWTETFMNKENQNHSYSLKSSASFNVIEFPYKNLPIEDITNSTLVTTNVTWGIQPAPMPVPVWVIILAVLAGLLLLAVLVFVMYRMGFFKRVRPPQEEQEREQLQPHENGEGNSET
Chain of αvβ3 integrin (P05106 27-788): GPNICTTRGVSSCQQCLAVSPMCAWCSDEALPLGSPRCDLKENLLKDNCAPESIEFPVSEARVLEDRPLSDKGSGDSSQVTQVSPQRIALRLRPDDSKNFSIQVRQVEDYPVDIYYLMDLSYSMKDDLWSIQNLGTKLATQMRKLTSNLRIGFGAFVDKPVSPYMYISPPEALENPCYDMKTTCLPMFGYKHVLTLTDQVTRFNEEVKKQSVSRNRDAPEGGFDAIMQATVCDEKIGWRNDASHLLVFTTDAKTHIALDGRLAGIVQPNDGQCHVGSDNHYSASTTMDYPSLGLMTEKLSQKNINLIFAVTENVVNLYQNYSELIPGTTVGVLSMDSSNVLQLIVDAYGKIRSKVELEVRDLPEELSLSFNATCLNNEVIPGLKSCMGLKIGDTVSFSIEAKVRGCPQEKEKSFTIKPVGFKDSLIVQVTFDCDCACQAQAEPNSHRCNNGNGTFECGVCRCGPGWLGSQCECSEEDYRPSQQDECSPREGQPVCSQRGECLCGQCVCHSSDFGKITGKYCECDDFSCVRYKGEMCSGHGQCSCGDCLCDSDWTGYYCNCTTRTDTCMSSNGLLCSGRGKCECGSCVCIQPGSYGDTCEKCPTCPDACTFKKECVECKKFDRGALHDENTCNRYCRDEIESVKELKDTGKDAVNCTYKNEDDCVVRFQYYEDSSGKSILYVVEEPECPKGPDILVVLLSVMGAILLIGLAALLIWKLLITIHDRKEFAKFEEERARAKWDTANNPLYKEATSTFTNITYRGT
The samples were analyzed with Coulter XL-MCL flow cytometry. The histogram and mean fluorescence intensity (MFI) were determined. The apparent Kd, IC50 were calculated using Graph Prism software (≦www.graphpad.com≧).
A general note: Flow cytometry measures light scatter and fluorescence of single cells or particles in a stream.
For the compound `CC(C)[C@H]1NC(=O)[C@@H](CC(=O)O)NC(=O)[C@H](CC(=O)O)NC(=O)CNC(=O)[C@H](CCCNC(=N)N)NC(=O)CNC(=O)[C@@H](N)CSSC[C@@H](C(N)=O)NC1=O` [LXW11, CGRGDdvC] (H-CGRGD[dD][dV]C-NH2; disulfide 1-8), the IC50 was over 20 µM.

As for `CC[C@@H](C)[C@H]1NC(=O)C2(CCC(O)CC2)NC(=O)[C@H](CC(=O)O)NC(=O)CNC(=O)[C@H](CCCNC(=N)N)NC(=O)CN(C)C(=O)[C@H](N)CSSC[C@H](C(N)=O)NC1=O` (some centres unmarked) [LXW32, c-Sar-RGD-Ahch-i c] (H-[dC][Sar]RGD[X2][dI][dC]-NH2; disulfide 1-8), the IC50 was over 20 µM.

On to `CN1CC(=O)N[C@@H](CCCNC(=N)N)C(=O)NCC(=O)N[C@@H](CC(=O)O)C(=O)NC2(CCC(O)CC2)C(=O)N[C@H](C(C)(C)C)C(=O)N[C@@H](C(N)=O)CSSC[C@@H](N)C1=O` (some centres unmarked) [LXW33, c-Sar-RGD-Ahch-DBug-c] (H-[dC][Sar]RGD[X2][dTle][dC]-NH2; disulfide 1-8), for which the IC50 is over 20 µM.

`C=CC[C@H]1NC(=O)[C@@H](CC(=O)O)NC(=O)[C@H](CC(=O)O)NC(=O)CNC(=O)[C@H](CCCNC(=N)N)NC(=O)CNC(=O)[C@H](N)CSSC[C@@H](C(N)=O)NC1=O` [LXW34, cGRGDd-DAgl-C]: the IC50 was over 20 µM.

The compound `CN1CC(=O)N[C@@H](CCCNC(=N)N)C(=O)NCC(=O)N[C@@H](CC(=O)O)C(=O)N[C@H](CC(=O)O)C(=O)NC2(CCOCC2)C(=O)N[C@H](C(N)=O)CSSC[C@H](N)C1=O` [LXW36, C-Sar-RGDd-Actp-C] showed an IC50 of over 20 µM.

The compound `N=C(N)NCCC[C@@H]1NC(=O)CNC(=O)[C@H](N)CSSC[C@@H](C(N)=O)NC(=O)C2(CCOCC2)NC(=O)[C@@H](CC(=O)O)NC(=O)[C@H](CC(=O)O)NC(=O)CNC1=O` [LXW41, cGRGDd-Actp-C] came in with an IC50 of over 20 µM.

`CC[C@@H](C)[C@H]1NC(=O)C2(CCC(O)CC2)NC(=O)[C@H](CC(=O)O)NC(=O)CNC(=O)[C@H](CCCNC(=N)N)NC(=O)CN(C)C(=O)[C@H](N)CSSC[C@@H](C(N)=O)NC1=O` (some centres unmarked) [LXW42, c-Sar-RGD-Ahch-iC] (H-[dC][Sar]RGD[X2][dI]C-NH2; disulfide 1-8) registered an IC50 of over 20 µM.

As for `CN1CC(=O)N[C@@H](CCCNC(=N)N)C(=O)NCC(=O)N[C@@H](CC(=O)O)C(=O)N[C@@H](Cc2ccc(OCC(=O)O)cc2)C(=O)N[C@H](CC(=O)O)C(=O)N[C@H](C(N)=O)CSSC[C@H](N)C1=O` [LXW44, C-Sar-RGD-Bmp-dC] (H-C[Sar]RGDY(Carboxymethyl)[dD]C-NH2; disulfide 1-8), the IC50 is over 20 µM.

`N=C(N)NCCC[C@@H]1NC(=O)CNC(=O)[C@@H](N)CSSC[C@H](C(N)=O)NC(=O)[C@@H]2CC[C@H](c3ccccc3)N2C(=O)[C@@H](CCC(=O)O)NC(=O)[C@H](CC(=O)O)NC(=O)CNC1=O` [LXW45, CGRGDe-Ppca-c] (H-CGRGD[dE][Pro(5R-Ph)][dC]-NH2; disulfide 1-8) returned a concentration for half-maximal inhibition (IC50) of over 20 µM.

For `N=C(N)NCCC[C@@H]1NC(=O)CNC(=O)[C@@H](N)CSSC[C@H](C(N)=O)NC(=O)[C@@H]2CC[C@H](c3ccccc3)N2C(=O)CN(CCC(=O)O)C(=O)[C@H](CC(=O)O)NC(=O)CNC1=O` [LXW46, CGRGD-Nglu-Ppca-c] (H-CGRGD[N(CH2CH2COOH)Gly][Pro(5R-Ph)][dC]-NH2; disulfide 1-8), the IC50 was over 20 µM.

The assay is the same for the next values; noted with them: LXW9-92: inhibiting the binding of biotinylated LXW7 against αvβ3-K562 cells; class symbols.
In the case of `C=CC[C@H]1NC(=O)[C@@H](CC(=O)O)NC(=O)[C@H](CC(=O)O)NC(=O)CNC(=O)[C@H](CCCNC(=N)N)NC(=O)CNC(=O)[C@H](N)CSSC[C@H](C(N)=O)NC1=O` [LWX16, cGRGDd-DAgl-c], the IC50 lay within 1 to 10 µM.

Take `C#CC[C@H]1NC(=O)[C@@H](CC(=O)O)NC(=O)[C@H](CC(=O)O)NC(=O)CNC(=O)[C@H](CCCNC(=N)N)NC(=O)CNC(=O)[C@H](N)CSSC[C@H](C(N)=O)NC1=O` [LWX17, cGRGDd-DPra-c]: the IC50 was 1 to 10 µM.

As for `CC(C)[C@H]1NC(=O)[C@@H](CC(=O)O)NC(=O)[C@H](CC(=O)O)NC(=O)CNC(=O)[C@H](CCCNC(=N)N)NC(=O)CNC(=O)[C@@H](N)CSSC[C@H](C(N)=O)NC1=O` [LXW9, CGRGDdvc] (H-CGRGD[dD][dV][dC]-NH2; disulfide 1-8), the IC50 was in the range of 1 to 10 µM.

The compound `CC(C)[C@H]1NC(=O)[C@@H](CC(=O)O)NC(=O)[C@H](CC(=O)O)NC(=O)CNC(=O)[C@H](CCCNC(=N)N)NC(=O)CNC(=O)[C@H](N)CSSC[C@@H](C(N)=O)NC1=O` [LXW10, cGRGDdvC] (H-[dC]GRGD[dD][dV]C-NH2; disulfide 1-8) gave an IC50 of 1 to 10 µM.

`CC(=O)N[C@@H]1CSSC[C@H](C(N)=O)NC(=O)[C@@H](C(C)C)NC(=O)[C@@H](CC(=O)O)NC(=O)[C@H](CC(=O)O)NC(=O)CNC(=O)[C@H](CCCNC(=N)N)NC(=O)CNC1=O` [LXW12, Acetyl-cGRGDdvc] (Ac-[dC]GRGD[dD][dV][dC]-NH2; disulfide 1-8) yielded an IC50 of under 1 µM.

`CC(C)[C@H]1NC(=O)[C@@H](CC(=O)O)NC(=O)[C@H](CC(=O)O)NC(=O)CNC(=O)[C@H](CCCNC(=N)N)NC(=O)[C@@H](C)NC(=O)[C@H](N)CSSC[C@H](C(N)=O)NC1=O` [LXW13, caRGDdvc] (H-[dC][dA]RGD[dD][dV][dC]-NH2; disulfide 1-8) registered a concentration for half-maximal inhibition (IC50) of 1 to 10 µM.

Compound `CC(C)[C@H]1NC(=O)[C@@H](CC(=O)O)NC(=O)[C@H](CC(=O)O)NC(=O)CNC(=O)[C@H](CCCNC(=N)N)NC(=O)CN(C)C(=O)[C@H](N)CSSC[C@H](C(N)=O)NC1=O` [LXW14, c-Sar-RGDdvc] (H-[dC][Sar]RGD[dD][dV][dC]-NH2; disulfide 1-8) had an IC50 of 1 to 10 µM.

Take `CC(C)[C@H]1NC(=O)[C@@H](CC(=O)O)NC(=O)[C@H](CC(=O)O)NC(=O)CNC(=O)[C@H](CCCNC(=N)N)NC(=O)CCNC(=O)[C@H](N)CSSC[C@H](C(N)=O)NC1=O` [LXW15, c-β-alanine-RGDdvc] (H-[dC][βAla]RGD[dD][dV][dC]-NH2; disulfide 1-8): the IC50 lay within 1 to 10 µM.

Regarding `CC(C)(C)[C@H]1NC(=O)[C@@H](CC(=O)O)NC(=O)[C@H](CC(=O)O)NC(=O)CNC(=O)[C@H](CCCNC(=N)N)NC(=O)CNC(=O)[C@H](N)CSSC[C@H](C(N)=O)NC1=O` [LXW18, cGRGDd-DBug-c], the IC50 was under 1 µM.

`CC(C)[C@H]1NC(=O)[C@@H](CC(=O)O)NC(=O)[C@H](CC(=O)O)NC(=O)CNC(=O)[C@H](CCCNC(=N)N)NC(=O)CNC(=O)[C@H](N)C(C)(C)SSC(C)(C)[C@H](C(N)=O)NC1=O` [LXW19, DPen-GRGDdv-DPen] (H-[dPen]GRGD[dD][dV][dPen]-NH2; disulfide 1-8) showed an IC50 of 1 to 10 µM.

As for `CC(C)[C@H]1NC(=O)[C@@H](CC(=O)O)NC(=O)[C@H](CC(=O)O)NC(=O)CNC(=O)[C@H](CCCNC(=N)N)NC(=O)CNC(=O)[C@H](N)C(C)(C)SSC[C@H](C(N)=O)NC1=O` [LXW20, DPen-GRGDdvc] (H-[dPen]GRGD[dD][dV][dC]-NH2; disulfide 1-8), the IC50 fell in the range of 1 to 10 µM.

`CC(C)[C@H]1NC(=O)[C@@H](CC(=O)O)NC(=O)[C@H](CC(=O)O)NC(=O)CNC(=O)[C@H](CCCNC(=N)N)NC(=O)CNC(=O)[C@H](N)CSSC(C)(C)[C@H](C(N)=O)NC1=O` [LXW21, cGRGDdv-DPen] (H-[dC]GRGD[dD][dV][dPen]-NH2; disulfide 1-8) came in with an IC50 of 1 to 10 µM.

In turn, `CC(C)[C@@H]1C(=O)N[C@@H](C(N)=O)CSSC[C@@H](N)C(=O)NCC(=O)N[C@@H](CCCNC(=N)N)C(=O)NCC(=O)N[C@@H](CC(=O)O)C(=O)N[C@H](CC(=O)O)C(=O)N1C` [LXW22, cGRGDd-D(NMe)Val-c] registered an IC50 of under 1 µM.

As to `CC(C)[C@@]1(C)NC(=O)[C@@H](CC(=O)O)NC(=O)[C@H](CC(=O)O)NC(=O)CNC(=O)[C@H](CCCNC(=N)N)NC(=O)CNC(=O)[C@H](N)CSSC[C@H](C(N)=O)NC1=O` [LXW23, cGRGDd-D(CaMe)Val-c], the IC50 is over 10 µM.

`CC[C@H]1NC(=O)[C@@H](CC(=O)O)NC(=O)[C@H](CC(=O)O)NC(=O)CNC(=O)[C@H](CCCNC(=N)N)NC(=O)CNC(=O)[C@H](N)CSSC[C@H](C(N)=O)NC1=O` [LXW25, cGRGDd-DAbu-c] registered an IC50 of under 1 µM.

For `CC[C@@H](C)[C@H]1NC(=O)[C@@H](CC(=O)O)NC(=O)[C@H](CC(=O)O)NC(=O)CNC(=O)[C@H](CCCNC(=N)N)NC(=O)CNC(=O)[C@H](N)CSSC[C@H](C(N)=O)NC1=O` [LXW26, cGRGDdic] (H-[dC]GRGD[dD][dI][dC]-NH2; disulfide 1-8), the IC50 lay in the range of 1 to 10 µM.

As for `C#CC[C@H]1NC(=O)[C@@H](CC(=O)O)NC(=O)[C@H](CC(=O)O)NC(=O)CNC(=O)[C@H](CCCNC(=N)N)NC(=O)CN(C)C(=O)[C@@H](N)CSSC[C@@H](C(N)=O)NC1=O` [LXW35, C-Sar-RGDd-DPra-C], the 50% inhibitory concentration (IC50) was over 10 µM.

Regarding `C#CC[C@H]1NC(=O)[C@@H](CC(=O)O)NC(=O)[C@H](CC(=O)O)NC(=O)CNC(=O)[C@H](CCCNC(=N)N)NC(=O)CN(C)C(=O)[C@H](N)CSSC[C@@H](C(N)=O)NC1=O` [LXW37, c-Sar-RGDd-DPra-C], the IC50 is over 10 µM.

`N=C(N)NCCC[C@@H]1NC(=O)CNC(=O)[C@@H](N)CSSC[C@@H](C(N)=O)NC(=O)[C@@H](Cc2cscn2)NC(=O)[C@@H](CC(=O)O)NC(=O)[C@H](CC(=O)O)NC(=O)CNC1=O` [LXW39, CGRGDd-DTha-C] yielded an IC50 of over 10 µM.

`C#CC[C@H]1NC(=O)[C@@H](CC(=O)O)NC(=O)[C@H](CC(=O)O)NC(=O)CNC(=O)[C@H](CCCNC(=N)N)NC(=O)CNC(=O)[C@H](N)CSSC[C@@H](C(N)=O)NC1=O` [LXW40, cGRGDd-DPra-C] yielded an IC50 of 1 to 10 µM.

For the compound `N=C(N)NCCC[C@@H]1NC(=O)CNC(=O)[C@@H](N)CSSC[C@@H](C(N)=O)NC(=O)[C@@H](Cc2cccc3ccccc23)NC(=O)[C@@H](CC(=O)O)NC(=O)[C@H](CC(=O)O)NC(=O)CNC1=O` [LXW47, CGRGDd-DNal1-C], the half-maximal inhibitory concentration (IC50) was in the range of 1 to 10 µM.

On to `N=C(N)NCCC[C@@H]1NC(=O)CNC(=O)[C@H](N)CSSC[C@H](C(N)=O)NC(=O)[C@@H](Cc2csc3ccccc23)NC(=O)[C@@H](CC(=O)O)NC(=O)[C@H](CC(=O)O)NC(=O)CNC1=O` [LXW48, cGRGDd-DBta-c], for which the concentration for half-maximal inhibition (IC50) was under 1 µM.

(Values after US9073974B2, “RGD-containing cyclic peptides” (The Regents of the University of California, priority 2009, dated 2015).)
